# Publication PMC10698726 (Molecular Pharmaceutics, 2023)
# Where two headings read alike, the source gives them in different places.
# Assays:
# [1] = biological target: T1, OCT2 (Homo sapiens, UniProt O15244); assay: Inhibition of model substrate uptake in OCT2-overexpressing HEK293 cells; settings: for (S,S)-Ethambutol inhibition [%] / N-Ethyllidocaine inhibition [%] / inhibition at 5 min, 20 μM / ASP+ inhibition [%]: OCT2, 20 μM inhibitor; for inhibition at 5 min, 20 μM / selectivity ratio at 5 min: human, OCT2-overexpressing HEK293 cells; for selectivity ratio at 5 min: pH 7.4
# T1 sequence (O15244 1-555): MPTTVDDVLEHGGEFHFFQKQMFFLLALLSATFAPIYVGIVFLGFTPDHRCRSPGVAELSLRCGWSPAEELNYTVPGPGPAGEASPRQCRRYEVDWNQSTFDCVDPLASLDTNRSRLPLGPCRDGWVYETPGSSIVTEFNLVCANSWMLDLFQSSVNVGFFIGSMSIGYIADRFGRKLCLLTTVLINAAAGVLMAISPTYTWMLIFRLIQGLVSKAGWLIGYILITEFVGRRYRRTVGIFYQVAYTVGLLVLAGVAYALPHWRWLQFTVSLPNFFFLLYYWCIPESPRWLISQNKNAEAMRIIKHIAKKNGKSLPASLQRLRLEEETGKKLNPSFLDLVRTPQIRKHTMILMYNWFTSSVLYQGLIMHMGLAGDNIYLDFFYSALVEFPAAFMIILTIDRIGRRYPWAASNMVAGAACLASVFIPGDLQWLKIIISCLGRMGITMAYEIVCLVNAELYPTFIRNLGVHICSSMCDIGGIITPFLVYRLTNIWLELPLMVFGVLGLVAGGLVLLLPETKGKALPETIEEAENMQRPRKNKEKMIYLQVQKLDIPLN
# [2] = biological target: T2, OCT3 (Homo sapiens, UniProt O75751); assay: Inhibition of model substrate uptake in OCT3-overexpressing HEK293 cells; assay type: cell-based
# T2 construct: expressed in transfected cells; host or cells: HEK293
# T2 sequence (O75751 1-556): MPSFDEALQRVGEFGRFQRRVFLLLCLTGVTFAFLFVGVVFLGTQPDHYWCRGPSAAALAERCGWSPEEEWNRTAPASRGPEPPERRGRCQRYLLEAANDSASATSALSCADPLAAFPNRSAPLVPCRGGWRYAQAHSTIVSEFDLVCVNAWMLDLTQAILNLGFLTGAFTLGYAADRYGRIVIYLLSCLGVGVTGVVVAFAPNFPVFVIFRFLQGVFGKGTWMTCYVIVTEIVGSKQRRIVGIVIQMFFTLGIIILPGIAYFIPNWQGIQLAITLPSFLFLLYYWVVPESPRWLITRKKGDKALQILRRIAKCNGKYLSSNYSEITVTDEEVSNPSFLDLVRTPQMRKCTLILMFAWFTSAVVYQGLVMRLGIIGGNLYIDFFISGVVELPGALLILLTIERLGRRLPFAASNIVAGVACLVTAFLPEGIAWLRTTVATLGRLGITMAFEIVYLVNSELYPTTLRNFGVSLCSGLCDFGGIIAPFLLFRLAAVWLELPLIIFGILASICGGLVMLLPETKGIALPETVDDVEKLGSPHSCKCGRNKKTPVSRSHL
# Procedure, shortened: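 Transporter-overexpressing HEK293 cells were incubated 5 min in HBSS+ with 2 μM model substrate, with or without 20 μM inhibitor or increasing inhibitor concentrations. Uptake was read as ASP^+ fluorescence or by LC–MS/MS, with empty-vector uptake subtracted. IC50 came from a Hill fit of activity versus log concentration.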
# [3] = biological target: T3, OCT1 (Homo sapiens, UniProt O15245); assay: Inhibition of model substrate uptake in OCT1-overexpressing HEK293 cells; assay type: cell-based; parameters: expressed in transfected cells; host or cells: HEK293; settings: for inhibition at 5 min, 20 μM: OCT1-overexpressing HEK293 cells
# T3 sequence (O15245 1-554): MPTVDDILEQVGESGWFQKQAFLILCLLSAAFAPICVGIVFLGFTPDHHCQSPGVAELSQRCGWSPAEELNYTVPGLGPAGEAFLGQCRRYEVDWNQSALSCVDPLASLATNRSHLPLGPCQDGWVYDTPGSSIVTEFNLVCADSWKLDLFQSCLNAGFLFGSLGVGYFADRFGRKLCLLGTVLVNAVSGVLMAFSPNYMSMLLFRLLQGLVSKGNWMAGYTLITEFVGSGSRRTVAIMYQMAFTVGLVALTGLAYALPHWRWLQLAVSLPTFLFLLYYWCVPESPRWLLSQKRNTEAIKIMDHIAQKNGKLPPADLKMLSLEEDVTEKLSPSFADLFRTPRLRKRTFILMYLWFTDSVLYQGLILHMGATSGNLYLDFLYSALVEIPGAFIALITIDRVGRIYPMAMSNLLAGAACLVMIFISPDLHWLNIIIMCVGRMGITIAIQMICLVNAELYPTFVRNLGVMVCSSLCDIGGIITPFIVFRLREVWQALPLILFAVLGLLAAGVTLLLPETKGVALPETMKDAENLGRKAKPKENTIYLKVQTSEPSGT
# Experimental: Koepsell and Gorbulev (University of Würzburg, Germany).
# Fluorescence quantification was performed in technical duplicates.
# [4] = pH 7.4, probe ASP+ (2 μM), ASP+ inhibition [%], 2 μM ASP+, 5 min
# [5] = HEK293, 5 min, read-out: (S)-Zolmitriptan inhibition [%]
# [6] = HEK293, 5 min, read-out: (S,S)-Ethambutol inhibition [%]
# [7] = human, pH 7.4, probe (S,S)-ethambutol (2 μM), (S,S)-Ethambutol inhibition [%], OCT1, 20 μM inhibitor, 2 μM (S,S)-ethambutol, 5 min
# [8] = human, pH 7.4, probe ASP+ (2 μM), OCT1, 20 μM inhibitor, 2 μM ASP+, 5 min, mean of three experiments, read-out: ASP+ inhibition [%]
# [9] = human, pH 7.4, probe sumatriptan (2 μM), OCT1, 20 μM inhibitor, 2 μM sumatriptan, 5 min, read-out: Sumatriptan inhibition [%]
# [10] = IC50, OCT2, Table S5, 2 μM ASP+ as model substrate, 5 min
# [11] = pH 7.4, probe (S,S)-ethambutol (2 μM), (S,S)-Ethambutol inhibition [%], 2 μM (S,S)-ethambutol, 5 min
# [12] = pH 7.4, probe N-ethyllidocaine (2 μM), N-Ethyllidocaine inhibition [%], 2 μM N-ethyllidocaine, 5 min
# [13] = HEK293, 5 min, read-out: (S)-Zolmitriptan inhibition [%], OCT3, 20 μM inhibitor, 2 μM (S)-zolmitriptan, 5 min
# [14] = HEK293, 5 min, read-out: (S,S)-Ethambutol inhibition [%], OCT3, 20 μM inhibitor, 2 μM (S,S)-ethambutol, 5 min
# [15] = HEK293, OCT3, 20 μM inhibitor, 2 μM ASP+, 5 min, read-out: ASP+ inhibition [%]
# [16] = OCT3, 20 μM inhibitor, 2 μM (S)-zolmitriptan, 5 min
# [17] = OCT3, 20 μM inhibitor, 2 μM (S,S)-ethambutol, 5 min
# [18] = OCT3, 20 μM inhibitor, 2 μM ASP+, 5 min
# [19] = OCT1, 20 μM inhibitor, 2 μM (S,S)-ethambutol, 5 min
# [20] = OCT1, 20 μM inhibitor, 2 μM ASP+, 5 min, mean of three experiments
# [21] = OCT1, 20 μM inhibitor, 2 μM sumatriptan, 5 min
SMILES,"(S,S)-Ethambutol inhibition [%] ([1]; 2 μM (S,S)-ethambutol, 5 min)","N-Ethyllidocaine inhibition [%] ([1]; 2 μM N-ethyllidocaine, 5 min)","inhibition at 5 min, 20 μM [1, 4]","inhibition at 20 µM [2, 5]","inhibition at 20 µM [2, 6]","inhibition at 5 min, 20 μM [3, 7]","inhibition at 5 min, 20 μM [3, 8]","inhibition at 5 min, 20 μM [3, 9]","IC50 [1, 10]","inhibition at 5 min, 20 μM [1, 11]","inhibition at 5 min, 20 μM [1, 12]","inhibition at 20 µM [2, 14]","inhibition at 20 µM [2, 15]","(S)-Zolmitriptan inhibition [%] [2, 16]","ASP+ inhibition [%] ([1]; 2 μM ASP+, 5 min)","ASP+ inhibition [%] [2, 18]","ASP+ inhibition [%] [3, 20]",also measured
CNCC[C@@H](Oc1ccc(C(F)(F)F)cc1)c1ccccc1 [(R)-Fluoxetine],28.2%,48.9%,65.6%,17%,9.6%,77.5%,45.6%,83.4%,,,,,,,,,,ASP+ inhibition [%] [2]: -6.0%
CC(C)(C)NC[C@H](O)COc1nsnc1N1CCOCC1 [(S)-Timolol],,,50.1%,,,25.6%,3.9%,42.1%,60.2 µM,14.4%,25.1%,11.1%,27.8%,,,,,"inhibition at 20 µM [2, 13]: 16.8%"
OC[C@H](O)CN1CCN(c2ccccc2)CC1 [(R)-Dropropizine],,,40.8%,,,30.1%,26.2%,41%,80.6 µM,28%,8%,5.8%,26.4%,-30.2%,,,,selectivity ratio at 5 min [1]: 1.4
CNCC[C@@H](Oc1cccc2ccccc12)c1cccs1 [(R)-Duloxetine],,,53.3%,1.6%,16.7%,85.1%,41.3%,86.8%,,33.2%,50.1%,,,,,,,"IC50 ([1]; IC50): 25.3 µM; inhibition at 20 µM ([2]; HEK293, read-out: ASP+ inhibition [%]): 3.8%"
CC(C)(C)NC[C@@H](O)c1ccc(O)c(CO)c1 [(S)-Salbutamol],3.0%,-17.4%,,,,,,,,,,,,-3.4%,-2.8%,1.3%,6.1%,"(S,S)-Ethambutol inhibition [%] [2, 17]: 14.5%; (S,S)-Ethambutol inhibition [%] [3, 19]: 9.3%; Sumatriptan inhibition [%] [3, 21]: -10.2%"
OC[C@@H](O)CN1CCN(c2ccccc2)CC1 [(S)-Dropropizine],20.5%,7.5%,,,,,,,55.6 µM,,,,,-17.1%,51.1%,29.1%,24.6%,"(S,S)-Ethambutol inhibition [%] [2, 17]: 6.7%; (S,S)-Ethambutol inhibition [%] [3, 19]: 27.4%; Sumatriptan inhibition [%] [3, 21]: 30.4%"
C#CCN(C)[C@H](C)Cc1ccccc1 [(R)-Deprenyl],,52.3%,,18%,24.2%,,,,2.4 µM,,,,12.6%,,101.0%,,21.6%,"Sumatriptan inhibition [%] ([3]; human, pH 7.4): 62.3%"
CC(C)C[C@@H](N(C)C)C1(c2ccc(Cl)cc2)CCC1 [(R)-Sibutramine],,51.2%,,38.1%,35.5%,,,,,,,,,,81.6%,2.6%,41.5%,"Sumatriptan inhibition [%] ([3]; human, pH 7.4): 74.0%"
N[C@@H]1CONC1=O [(R)-Cycloserine],5.0%,,12.3%,,,,,28%,,,13.6%,7.4%,17.8%,-0.4%,,,-0.8%,"(S,S)-Ethambutol inhibition [%] [3, 19]: 17.6%"
CN(C)CCO[C@](C)(c1ccccc1)c1ccccn1 [(R)-Doxylamine],,-13.8%,73.2%,,,96%,63.6%,90.8%,,26.2%,,23.4%,12.2%,,,,,"inhibition at 20 µM [2, 13]: 17.7%; IC50 ([3]; OCT1, Table S5, 2 μM ASP+ or ethambutol as model substrate, 5 min, read-out: IC50): 22.3 µM"
CC(C)(C)NC[C@H](O)c1ccc(O)c(CO)c1 [(R)-Salbutamol],-0.3%,-15.0%,,,,12.2%,5.3%,,,,,19.5%,,-6.4%,12.8%,10.3%,,"Sumatriptan inhibition [%] [3, 21]: -18.8%"
COc1ccc([C@@H](CN(C)C)C2(O)CCCCC2)cc1 [(S)-Venlafaxine],,13.4%,,21%,4.6%,,,,,,,,-11.4%,,21.8%,,,"Sumatriptan inhibition [%] ([3]; human, pH 7.4): 66.9%"
CC(C)(C)NC[C@@H](O)COc1nsnc1N1CCOCC1 [(R)-Timolol],,,37.2%,,,32.1%,12.9%,55%,121 µM,12%,24.7%,8.2%,28.6%,,,,,"selectivity ratio at 5 min [1]: 2; inhibition at 20 µM [2, 13]: 7.6%"
